Laboratory results reported in US12171224B2, “Choline salt and ammonium-free adjuvants for water conditioning and agricultural formulations” (SPECIALTY OPERATIONS FRANCE, priority 2015, dated 2024).

Experiments:
Conditions in all cases: 1000 ppm water, after 21 days
[1] = tested on: Weeds; test: Greenhouse weed control study, average over the four weeds
Protocol: (§1) A greenhouse study was conducted to evaluate efficacy benefits of several candidates.
(§2) Procedure: Product application was made using a DeVries spray booth calibrated to 10 gpa, 40 psi with flat-fan AIXR11002 nozzle. Test plants were placed in a certain zone (Zone 3) of research greenhouse on a wire-mesh raised bench and arranged in a randomized complete block design. […] Environmental conditions averaged high temperature 87° F. to low temperature of 75° F. during trial dates. Average humidity levels ranged from 40% to 90%. Test plants received natural lighting for duration of trial. Test plants were soil watered every twenty-four (24) hours as needed.
(§3) Weeds were evaluated for percent control at 3, 7, 14, and 21-days following application.
(§4) Rating scale used; 0 indicating no control/injury up to 100 indicating complete control of weed species as compared to the untreated check.

[2] = tested on: Ivyleaf morning glory; test: Greenhouse weed control study, ivyleaf morning glory
Protocol: as §1, §2, §3, §4

[3] = tested on: Common barnyardgrass; test: Greenhouse weed control study, common barnyardgrass
Protocol: as §1, §2, §3, §4

[4] = tested on: Yellow foxtail; test: Greenhouse weed control study, yellow foxtail
Protocol: as §1, §2, §3, §4

[5] = tested on: Velvet leaf; test: Greenhouse weed control study, velvetleaf
Protocol: as §1, §2, §3, §4

[6] = (55% soln) 0.18%, use rate 0.18 % w/w
[7] = (55% soln) 0.45%, use rate 0.45 % w/w
[8] = (80% liquid) 1%, use rate 1 % w/w

## N.N.O=S(=O)(O)O [Ammonium Sulfate]
[1]; 1%, use rate 2.5 % w/w
  Average percent control: 39.575%
[1]; 2%, use rate 5 % w/w
  Average percent control: 41.65%
[2]; 1%, use rate 2.5 % w/w
  Ivyleaf morning glory percent control: 20%
[2]; 2%, use rate 5 % w/w
  Ivyleaf morning glory percent control: 18.3%
[3]; 1%, use rate 2.5 % w/w
  Common barnyardgrass percent control: 80%
[3]; 2%, use rate 5 % w/w
  Common barnyardgrass percent control: 90%
[4]; 1%, use rate 2.5 % w/w
  Yellow foxtail percent control: 40%
[4]; 2%, use rate 5 % w/w
  Yellow foxtail percent control: 40%
[5]; 1%, use rate 2.5 % w/w
  Velvet leaf percent control: 18.3%
[5]; 2%, use rate 5 % w/w
  Velvet leaf percent control: 18.3%

## C[N+](C)(C)CCO.O=C([O-])CC(O)(CC(=O)O)C(=O)O [Choline Dihydrogen Citrate]
[1]; 0.4%, use rate 0.4 % w/w
  Average percent control: 42.5%
[2]; 0.4%, use rate 0.4 % w/w
  Ivyleaf morning glory percent control: 26.7%
[3]; 0.4%, use rate 0.4 % w/w
  Common barnyardgrass percent control: 83.3%
[4]; 0.4%, use rate 0.4 % w/w
  Yellow foxtail percent control: 40%
[5]; 0.4%, use rate 0.4 % w/w
  Velvet leaf percent control: 20%

## O=C(O)CC(O)(CC(=O)O)C(=O)O [Citric acid]
[1]; [6]
  Average percent control: 37.925%
[1]; [7]
  Average percent control: 36.25%
[2]; [6]
  Ivyleaf morning glory percent control: 16.7%
[2]; [7]
  Ivyleaf morning glory percent control: 20%
[3]; [6]
  Common barnyardgrass percent control: 83.3%
[3]; [7]
  Common barnyardgrass percent control: 60%
[4]; [6]
  Yellow foxtail percent control: 36.7%
[4]; [7]
  Yellow foxtail percent control: 50%
[5]; [6]
  Velvet leaf percent control: 15%
[5]; [7]
  Velvet leaf percent control: 15%

## Choline bicarbonate
[1]; [8]
  Average percent control: 34.575%
[2]; [8]
  Ivyleaf morning glory percent control: 10%
[3]; [8]
  Common barnyardgrass percent control: 30%
[4]; [8]
  Yellow foxtail percent control: 83.3%
[5]; [8]
  Velvet leaf percent control: 15%
